Measured values reported in US20230096766A1, “AMINO ACID HAVING FUNCTIONAL GROUP CAPABLE OF INTERMOLECULAR HYDROGEN BONDING, PEPTIDE COMPOUND CONTAINING SAME AND METHOD FOR PRODUCTION THEREOF” (Chugai Seiyaku Kabushiki Kaisha, priority 2018, published 2023).
*1 amine or outer side, *2 acyl side, *3 side chain or, on linkers, in order; H or OH if unused. Where a SMILES comes first, the peptide text is derived from it. Bridges are numbered along the chain shown (N, C = ends). [ ]: non-standard residue; d: D form. The star is where a group is joined. ξ: configuration not given here. NMeHph(3-OMe-4-CONHMe) = CNC(=O)c1ccc(CC[C@H](NC)C(=O)O)cc1OC; Phe(3-OMe,4-CONHMe) = CNC(=O)c1ccc(C[C@H](N)C(=O)O)cc1OC; X5 = O=C([C@H](CCC[C@@H]1CC(F)(F)CN1)N[*:1])[*:2]; CH2(1,2,4-oxadiazolon-3-yl) = O=c1[nH]c(C*)no1; NMePhe(3-Cl) = CN[C@@H](Cc1cccc(Cl)c1)C(=O)O; X4 = O=C(C(CCc1noc(=O)[nH]1)N[*:1])[*:2]; Pro(4,4-F2)ψ(CH2) = FC1(F)CN[C@H](C*)C1; X9 = O=C([C@@H](CN[*:1])COCCO)[*:2]; NMeF = CN[C@@H](Cc1ccccc1)C(=O)O; NMeGABA = CN(CCCC(=O)[*:2])[*:1]; NMeI = CC[C@H](C)[C@H](NC)C(=O)O; CH2CH(OH)CF3 = OC(C*)C(F)(F)F; NMeL = CN[C@@H](CC(C)C)C(=O)O; Propyl(2R-OH) = C[C@@H](O)C*; Butyl(3S-OH) = C[C@H](O)CC*; NMeV = CN[C@H](C(=O)O)C(C)C; NMeAbu = CC[C@H](NC)C(=O)O; NMeA = CN[C@@H](C)C(=O)O; Piperidide = C1CCN(*)CC1; dAbu = CC[C@@H](N)C(=O)O; NBuGly = CCCCNCC(=O)O; NPrGly = CCCNCC(=O)O; ξS = NC(CO)C(=O)O; Sar = CNCC(=O)O; tBu = CC(C)(C)*

Assay: Membrane permeability test of cyclic peptides (Caco-2, modified/improved method of WO 2018/124162)
Conditions: human
[1] = Caco-2, Caco-2 (cm/sec), membrane permeability of cyclic peptides, Caco-2
[2] = Caco-2, Caco-2 (membrane permeability), Table 10, cyclic peptides containing Ser(S-4-F2-Pyrro-Me) (G) or Nva(2-R-4-F2-Pyrro) (H)

SMILES	Papp [1] [×10⁻⁶ cm/s]	further results
CC[C@H](C)[C@H]1C(=O)N[C@@H]([C@@H](C)O)C(=O)N(C)CC(=O)N(C)[C@@H](CC)C(=O)N[C@H](C(=O)N2CCCCC2)CC(=O)N(C)[C@@H](CC(C)C)C(=O)N[C@@H](Cc2ccc(C(=O)NC)c(OC)c2)C(=O)N(C)[C@@H](CC(C)C)C(=O)N(C)[C@@H](Cc2ccccc2)C(=O)N[C@@H](CC(C)C)C(=O)N(C)[C@@H](CC(C)C)C(=O)N1C [AP31] ([NMeL][Phe(3-OMe,4-CONHMe)][NMeL][NMeF]L[NMeL][NMeI]T[Sar][NMeAbu]D-Piperidide; lactam N-11)	0.52	
CCCN1CC(=O)N(C)[C@@H](CC(C)C)C(=O)N[C@H](C(=O)N2CCCCC2)CC(=O)N(C)[C@@H](CC(C)C)C(=O)N[C@@H](Cc2ccccc2)C(=O)N(C)[C@@H](CC(C)C)C(=O)N(C)[C@@H](CC(C)C)C(=O)NC[C@@H](COCCO)C(=O)N(C)[C@@H](Cc2ccccc2)C(=O)N(C)[C@@H](CC(C)C)C(=O)N[C@@H]([C@@H](C)O)C1=O [AP132] ([NMeL]F[NMeL][NMeL][X9][NMeF][NMeL]T[NPrGly][NMeL]D-Piperidide; lactam N-11)	1.3	
CCCCN1CC(=O)N(C)[C@@H](CC(C)C)C(=O)N[C@@H](COC(C)(C)C)C(=O)N(C)[C@@H](CC(C)C)C(=O)N(C)[C@@H](CC(C)C)C(=O)N[C@H](C(=O)N2CCCCC2)CC(=O)N[C@H](CC(C)C)C(=O)N(C)[C@@H](Cc2ccccc2)C(=O)NC(COCc2noc(=O)[nH]2)C(=O)N(C)[C@@H](CC(C)C)C(=O)N[C@@H]([C@@H](C)O)C1=O (stereo partly drawn) [AP45] ([dL][NMeF][ξS](CH2(1,2,4-oxadiazolon-3-yl))[NMeL]T[NBuGly][NMeL]S(tBu)[NMeL][NMeL]D-Piperidide; lactam N-11)	1.4	
CCCCN1CC(=O)N(C)[C@@H](CC(C)C)C(=O)N[C@@H](CCC[C@@H]2CC(F)(F)CN2)C(=O)N(C)[C@@H](CC(C)C)C(=O)N(C)[C@@H](CC(C)C)C(=O)N[C@H](C(=O)N2CCCCC2)CC(=O)N[C@H](CC)C(=O)N(C)[C@@H](Cc2ccccc2)C(=O)N[C@@H](CC(C)C)C(=O)N(C)[C@@H](CC)C(=O)N[C@@H]([C@@H](C)O)C1=O [Compound H01] ([dAbu][NMeF]L[NMeAbu]T[NBuGly][NMeL][X5][NMeL][NMeL]D-Piperidide; lactam N-11)		Papp [2]: 0.25 ×10⁻⁶ cm/s
CCCCN1CC(=O)N(C)[C@@H](CC(C)C)C(=O)N[C@H](C(=O)N2CCCCC2)CC(=O)N(C)[C@@H](CC(C)C)C(=O)NC(COCc2noc(=O)[nH]2)C(=O)N(C)[C@@H](CC(C)C)C(=O)N(C)[C@@H](CC(C)C)C(=O)N[C@@H](C(C)C)C(=O)N(C)[C@@H](Cc2ccccc2)C(=O)N(C)[C@@H](CC(C)C)C(=O)N[C@@H]([C@@H](C)O)C1=O (stereo partly drawn) [AP48] ([NMeL][ξS](CH2(1,2,4-oxadiazolon-3-yl))[NMeL][NMeL]V[NMeF][NMeL]T[NBuGly][NMeL]D-Piperidide; lactam N-11)	0.4	
CCCCN1CC(=O)N(C)[C@@H](CC(C)C)C(=O)N[C@H](C(=O)N2CCCCC2)CC(=O)N(C)[C@@H](CC)C(=O)N[C@@H](CC(C)C)C(=O)N(C)[C@@H](CC(C)C)C(=O)N(C)[C@@H](Cc2ccccc2)C(=O)NC(CCc2noc(=O)[nH]2)C(=O)N(C)[C@@H](CC(C)C)C(=O)N(C)[C@@H](CC(C)C)C(=O)N[C@@H]([C@@H](C)O)C1=O (stereo partly drawn) [pd487] ([NMeAbu]L[NMeL][NMeF][X4][NMeL][NMeL]T[NBuGly][NMeL]D-Piperidide; lactam N-11)		Papp (Caco-2, Caco-2, Papp, membrane permeability, cyclic peptides comprising MeAbu(pip-4-F2), MeAbu(Mor), Ser(Et-2-Mor), MeAbu(pip-3-F2) or Abu(5-Oxo-Odz) (Table 29)): 2.2 ×10⁻⁶ cm/s
CCCCN1CC(=O)N(C)[C@@H](CC(C)C)C(=O)NC(COCc2noc(=O)[nH]2)C(=O)N(C)[C@@H](CC(C)C)C(=O)N(C)[C@@H](CC(C)C)C(=O)N[C@H](C(=O)N2CCCCC2)CC(=O)N[C@H](C(C)C)C(=O)N(C)[C@@H](Cc2ccccc2)C(=O)N[C@@H](CC(C)C)C(=O)N(C)[C@@H](CC(C)C)C(=O)N[C@@H]([C@@H](C)O)C1=O (stereo partly drawn) [AP43] ([dV][NMeF]L[NMeL]T[NBuGly][NMeL][ξS](CH2(1,2,4-oxadiazolon-3-yl))[NMeL][NMeL]D-Piperidide; lactam N-11)	0.82	
CCCCN1CC(=O)N(C)[C@@H](CC(C)C)C(=O)N[C@@H](COC[C@@H]2CC(F)(F)CN2)C(=O)N(C)[C@@H](CC(C)C)C(=O)N(C)[C@@H](CC(C)C)C(=O)N[C@H](C(=O)N2CCCCC2)CC(=O)N[C@H](C(C)C)C(=O)N(C)[C@@H](Cc2ccccc2)C(=O)N[C@@H](CC(C)C)C(=O)N(C)[C@@H](CC)C(=O)N[C@@H]([C@@H](C)O)C1=O [Compound G01] ([dV][NMeF]L[NMeAbu]T[NBuGly][NMeL]S(Pro(4,4-F2)ψ(CH2))[NMeL][NMeL]D-Piperidide; lactam N-11)		Papp [2]: 0.53 ×10⁻⁶ cm/s
CCCCN1CC(=O)N(C)[C@@H](CC(C)C)C(=O)N[C@H](C(=O)N2CCCCC2)CC(=O)N(C)[C@@H](C(C)C)C(=O)N[C@@H](CC(C)C)C(=O)N(C)[C@@H](CC(C)C)C(=O)N(C)[C@@H](Cc2ccccc2)C(=O)N[C@@H](COCC[C@H](C)O)C(=O)N(C)[C@@H](Cc2ccccc2)C(=O)N(C)[C@@H](C(C)C)C(=O)N[C@@H]([C@@H](C)O)C1=O [AP107] ([NMeV]L[NMeL][NMeF]S(Butyl(3S-OH))[NMeF][NMeV]T[NBuGly][NMeL]D-Piperidide; lactam N-11)	0.93	
CC(C)C[C@H]1C(=O)N[C@@H](C(C)C)C(=O)N(C)[C@@H](Cc2ccccc2)C(=O)N(C)[C@@H](CC(C)C)C(=O)N[C@@H](CCC[C@@H]2CC(F)(F)CN2)C(=O)N(C)[C@@H](CC(C)C)C(=O)N[C@@H]([C@@H](C)O)C(=O)N(C)[C@@H](CC(C)C)C(=O)N(C)[C@@H](CC(C)C)C(=O)N[C@H](C(=O)N2CCCCC2)CC(=O)N(C)CCCC(=O)N1C [Compound H03] ([NMeGABA][NMeL]V[NMeF][NMeL][X5][NMeL]T[NMeL][NMeL]D-Piperidide; lactam N-11)		Papp [2]: < 0.18 ×10⁻⁶ cm/s
CC[C@H](C)[C@@H]1NC(=O)[C@H](CC(C)C)N(C)C(=O)CCCN(C)C(=O)C[C@@H](C(=O)N2CCCCC2)NC(=O)[C@H](CC(C)C)N(C)C(=O)[C@H](CC(C)C)N(C)C(=O)[C@H]([C@@H](C)O)NC(=O)[C@H](CC(C)C)N(C)C(=O)[C@H](COC[C@@H]2CC(F)(F)CN2)NC(=O)[C@H](CC(C)C)N(C)C(=O)[C@H](Cc2ccccc2)N(C)C1=O [Compound G03] ([NMeGABA][NMeL]I[NMeF][NMeL]S(Pro(4,4-F2)ψ(CH2))[NMeL]T[NMeL][NMeL]D-Piperidide; lactam N-11)		Papp [2]: 0.23 ×10⁻⁶ cm/s
CCCCN1CC(=O)N(C)[C@@H](Cc2cccc(Cl)c2)C(=O)N(C)[C@@H](CC(C)C)C(=O)N[C@@H]([C@@H](C)CC)C(=O)N(C)[C@@H](CC(C)C)C(=O)N[C@H](C(=O)N2CCCCC2)CC(=O)N(C)CC(=O)N(C)[C@@H](CC(C)C)C(=O)NC(COCc2noc(=O)[nH]2)C(=O)N(C)[C@@H](CC(C)C)C(=O)N[C@@H]([C@@H](C)O)C1=O (stereo partly drawn) [AP49] ([Sar][NMeL][ξS](CH2(1,2,4-oxadiazolon-3-yl))[NMeL]T[NBuGly][NMePhe(3-Cl)][NMeL]I[NMeL]D-Piperidide; lactam N-11)	0.33	
CC[C@H](C)[C@@H]1NC(=O)[C@H](CC(C)C)N(C)C(=O)[C@H](COC(C)(C)C)NC(=O)[C@H](Cc2ccccc2)N(C)C(=O)[C@H](Cc2ccccc2)N(C)C(=O)[C@H](COCC(O)C(F)(F)F)NC(=O)[C@H](CC)N(C)C(=O)CCCN(C)C(=O)C[C@@H](C(=O)N2CCCCC2)NC(=O)[C@H](CC(C)C)N(C)C(=O)[C@H](CC(C)C)N(C)C1=O (stereo partly drawn) [Compound C13] ([NMeGABA][NMeAbu]S(CH2CH(OH)CF3)[NMeF][NMeF]S(tBu)[NMeL]I[NMeL][NMeL]D-Piperidide; lactam N-11)		Papp (Caco-2, Caco-2 (membrane permeability), Table 6, cyclic peptides containing Ser(1-CF3-EtOH) (C) or Hnl(7-F3-6-OH) (D)): 0.26 ×10⁻⁶ cm/s
CCCCN1CC(=O)N(C)[C@@H](CC(C)C)C(=O)N[C@H](C(=O)N2CCCCC2)CC(=O)N(C)[C@@H](CC)C(=O)N[C@@H](CC(C)C)C(=O)N(C)[C@@H](CC(C)C)C(=O)N(C)[C@@H](Cc2ccccc2)C(=O)N[C@@H](CCC[C@@H]2CC(F)(F)CN2)C(=O)N(C)[C@@H](C)C(=O)N(C)[C@@H](CC(C)C)C(=O)N[C@@H]([C@@H](C)O)C1=O [Compound H04] ([NMeAbu]L[NMeL][NMeF][X5][NMeA][NMeL]T[NBuGly][NMeL]D-Piperidide; lactam N-11)		Papp [2]: 0.93 ×10⁻⁶ cm/s
CNC(=O)c1ccc(CC[C@H]2C(=O)N[C@@H](CC(C)C)C(=O)N(C)[C@@H](CC(C)C)C(=O)N[C@@H]([C@@H](C)O)C(=O)N(C)CC(=O)N(C)[C@@H](CC(C)C)C(=O)N[C@@H](CC(C)C)C(=O)N(C)[C@@H](Cc3ccccc3)C(=O)N(C)[C@@H](CC(C)C)C(=O)N[C@H](C(=O)N3CCCCC3)CC(=O)N[C@H](C(C)C)C(=O)N2C)cc1OC [AP224] ([dV][NMeHph(3-OMe-4-CONHMe)]L[NMeL]T[Sar][NMeL]L[NMeF][NMeL]D-Piperidide; lactam N-11)	1.1	
CC(C)C[C@@H]1NC(=O)[C@H](C(C)C)N(C)C(=O)C[C@@H](C(=O)N2CCCCC2)NC(=O)[C@H](CC(C)C)N(C)C(=O)CN(C)C(=O)[C@H]([C@@H](C)O)NC(=O)[C@H](C(C)C)N(C)C(=O)[C@H](Cc2ccccc2)N(C)C(=O)C(COCC[C@H](C)O)NC(=O)[C@H](Cc2ccccc2)N(C)C(=O)[C@H](CC(C)C)N(C)C1=O (stereo partly drawn) [AP104] ([NMeV]L[NMeL][NMeF][ξS](Butyl(3S-OH))[NMeF][NMeV]T[Sar][NMeL]D-Piperidide; lactam N-11)	2.9	
CC[C@H](C)[C@@H]1NC(=O)[C@H](CC(C)C)N(C)C(=O)[C@H](COC(C)(C)C)NC(=O)[C@H](Cc2ccccc2)N(C)C(=O)[C@H](Cc2ccccc2)N(C)C(=O)[C@H](COC[C@@H](C)O)NC(=O)[C@H](CC(C)C)N(C)C(=O)CCCN(C)C(=O)C[C@@H](C(=O)N2CCCCC2)NC(=O)[C@H](CC(C)C)N(C)C(=O)[C@H](CC(C)C)N(C)C1=O [AP84] ([NMeGABA][NMeL]S(Propyl(2R-OH))[NMeF][NMeF]S(tBu)[NMeL]I[NMeL][NMeL]D-Piperidide; lactam N-11)	0.58	
